One data set deals with ALK mutant (G1269A) (Homo sapiens, UniProt Q9UM73, G1269A). Put plainly: biochemical. As to conditions: 100 μM ATP.
Data set [1] deals with wild-type human ALK protein (cytoplasmic domain, amino acid 1058-1620, GST-fusion) (Homo sapiens, UniProt Q9UM73). Put plainly: biochemical. As to conditions: 100 μM ATP.
In data set [2] the test system is Kappas-299 cells containing NPM-ALK fusion protein. Put plainly: 4-day cell viability assay (CellTiter-Glo), Kappas-299. The data set is classed as cell-based. As to conditions: NPM-ALK, 96 h, inhibition of cell growth, 4 days, multiple values from independent experiments. As for the experimental part: (§1) The effect of compounds on cell viability was determined in a 4-day proliferation assay. Cells were maintained in RPMI1640 culture medium with 10% FBS at 37° C. and an atmosphere of 5% CO2. […] Cells were seeded in 96-well plates at a density of 3,000-10,000 cells/well in 75 μl of culture medium. Compounds were serially diluted in the appropriate medium, and 75 μl of the diluted compounds were added to the appropriate wells of the cell plate. After the addition of compounds, the cells were incubated at 37° C. in an atmosphere of 5% CO2 for 4 days. Cell viability was determined using the CellTiter-Glo® Luminescent Cell Viability Assay Kit (Promega, Madison, Wis.) (for KARPAS-299 cells) or WST (2-(2-methoxy-4-nitrophenyl)-3-(4-nitrophenyl)-5-(2,4-disulfophenyl)-2H-tetrazolium, monosodium salt) Cell Counting-8 Kit (Dojindo Molecular Technologies, Inc., Rockville, Md.) (for H3122 cells) according to the manufacturers' instructions.
For CellTiter-Glo assay, 100 μl of CellTiter-Glo® Reagent was added to each well, and then the plates were incubated at room temperature for 10-20 minutes. The luminescent signal was measured using a Tecan Infinite M1000 multimode microplate reader (Tecan, Morrisville, N.C.). The readings were normalized to the DMSO-treated cells and the IC50 was calculated by nonlinear regression analysis using the GraphPad Prism 5 software.
Cells were treated for four days and cell growth was determined using a CellTiter-Glo assay.
(In ATP-based viability assays light output follows the ATP content of the culture.)

The target in a further data set is ALK mutant (S1206Y) (Homo sapiens, UniProt Q9UM73, S1206Y). Put plainly: biochemical.
Chain of ALK mutant (S1206Y) (Q9UM73 19-1620 S1206Y): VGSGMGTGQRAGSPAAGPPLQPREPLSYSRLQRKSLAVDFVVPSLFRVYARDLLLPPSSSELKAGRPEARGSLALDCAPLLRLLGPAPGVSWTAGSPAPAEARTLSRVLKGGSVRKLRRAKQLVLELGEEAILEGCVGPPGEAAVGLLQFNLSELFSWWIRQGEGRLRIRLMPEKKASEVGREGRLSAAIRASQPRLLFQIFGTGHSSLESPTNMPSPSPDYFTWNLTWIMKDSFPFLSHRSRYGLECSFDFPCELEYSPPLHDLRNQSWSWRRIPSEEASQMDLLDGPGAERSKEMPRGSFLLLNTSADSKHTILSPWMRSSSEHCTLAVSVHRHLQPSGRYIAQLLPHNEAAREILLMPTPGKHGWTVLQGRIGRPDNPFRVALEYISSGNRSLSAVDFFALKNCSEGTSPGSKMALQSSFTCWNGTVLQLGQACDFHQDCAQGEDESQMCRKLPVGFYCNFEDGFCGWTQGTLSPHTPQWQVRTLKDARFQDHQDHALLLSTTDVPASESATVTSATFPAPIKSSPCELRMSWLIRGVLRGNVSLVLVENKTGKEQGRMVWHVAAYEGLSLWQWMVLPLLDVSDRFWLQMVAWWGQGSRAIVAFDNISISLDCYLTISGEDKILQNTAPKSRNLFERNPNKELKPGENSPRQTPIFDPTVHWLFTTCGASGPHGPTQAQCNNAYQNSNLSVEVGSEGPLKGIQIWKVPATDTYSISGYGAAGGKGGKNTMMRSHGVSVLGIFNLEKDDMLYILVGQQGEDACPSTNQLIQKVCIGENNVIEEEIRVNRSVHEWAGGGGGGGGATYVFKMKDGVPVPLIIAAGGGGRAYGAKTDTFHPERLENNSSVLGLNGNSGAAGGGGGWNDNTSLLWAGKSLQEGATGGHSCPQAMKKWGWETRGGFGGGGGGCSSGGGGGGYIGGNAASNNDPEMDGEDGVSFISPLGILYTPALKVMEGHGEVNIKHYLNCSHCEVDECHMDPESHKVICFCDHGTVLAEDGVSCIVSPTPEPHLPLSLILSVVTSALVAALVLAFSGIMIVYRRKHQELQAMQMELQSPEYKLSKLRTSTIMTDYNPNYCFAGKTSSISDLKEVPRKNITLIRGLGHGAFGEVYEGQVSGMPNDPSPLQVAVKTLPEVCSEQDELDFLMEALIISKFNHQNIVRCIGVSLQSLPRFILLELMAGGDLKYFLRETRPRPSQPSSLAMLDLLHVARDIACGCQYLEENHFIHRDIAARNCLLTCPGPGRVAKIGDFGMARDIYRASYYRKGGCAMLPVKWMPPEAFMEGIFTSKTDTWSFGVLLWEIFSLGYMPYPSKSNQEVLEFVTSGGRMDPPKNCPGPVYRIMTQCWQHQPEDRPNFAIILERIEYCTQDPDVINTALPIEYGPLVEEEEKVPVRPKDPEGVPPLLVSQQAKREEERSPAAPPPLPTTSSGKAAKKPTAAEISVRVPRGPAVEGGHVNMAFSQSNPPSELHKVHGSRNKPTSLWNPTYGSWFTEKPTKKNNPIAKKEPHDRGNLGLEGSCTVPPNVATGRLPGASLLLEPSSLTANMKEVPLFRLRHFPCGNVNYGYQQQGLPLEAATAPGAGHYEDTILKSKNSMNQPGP
For data set [3], the system named is H3122 non-small cell lung cancer cell line harboring the EML4-ALK fusion gene. Put plainly: 4-day cell viability assay (WST), H3122. As to conditions: Homo sapiens, NCI-H3122, 96 h, 4 days, read-out: IC50 (nM) in Inhibition of Tumor Cell Growth H3122 Cell line. The data set is classed as cell-based. The method, then:
as §1
For WST assay, WST-8 reagent was added to each well at a final concentration of 10% (v/v), and then the plates were incubated at 37° C. for 1-2 hours for color development. The absorbance was measured at 450 nm using a SPECTRAmax PLUS plate reader (Molecular Devices, Sunnyvale, Calif.). The readings were normalized to the DMSO-treated cells and the half maximal inhibitory concentration (IC50) was calculated by nonlinear regression analysis using the GraphPad Prism 5 software (GraphPad Software, La Jolla, Calif.).
Cells were treated for four days and cell growth was determined using a WST assay.

Data set [4] can be described thus: Pharmacokinetic parameters in SD rats, IV and PO. Details: AUC(0-t): concentration or dose not given beside the values. As to conditions: Sprague-Dawley (SD), rat, in vivo; for bioavailability: po, read-out: Oral Bioavailability (F). The source says:
The pharmacokinetic (PK) parameters in SD rats for selected compounds with intravenous (IV) and oral (PO) administrations are provided in the following table (Table 5).

[5] abbreviates: intravenous, read-out: AUC0-t IV.
Setting [6] is: intravenous, read-out: t1/2 IV (converted).
[7] abbreviates: oral, read-out: t1/2 PO (converted).

Where “and” joins values, the source holds several entries; their conditions need not be identical. Equal entries are not always repeated. Where two headings read alike, the source gives them in different places.

Chain of wild-type human ALK protein (cytoplasmic domain, amino acid 1058-1620, GST-fusion) (Q9UM73 1058-1620): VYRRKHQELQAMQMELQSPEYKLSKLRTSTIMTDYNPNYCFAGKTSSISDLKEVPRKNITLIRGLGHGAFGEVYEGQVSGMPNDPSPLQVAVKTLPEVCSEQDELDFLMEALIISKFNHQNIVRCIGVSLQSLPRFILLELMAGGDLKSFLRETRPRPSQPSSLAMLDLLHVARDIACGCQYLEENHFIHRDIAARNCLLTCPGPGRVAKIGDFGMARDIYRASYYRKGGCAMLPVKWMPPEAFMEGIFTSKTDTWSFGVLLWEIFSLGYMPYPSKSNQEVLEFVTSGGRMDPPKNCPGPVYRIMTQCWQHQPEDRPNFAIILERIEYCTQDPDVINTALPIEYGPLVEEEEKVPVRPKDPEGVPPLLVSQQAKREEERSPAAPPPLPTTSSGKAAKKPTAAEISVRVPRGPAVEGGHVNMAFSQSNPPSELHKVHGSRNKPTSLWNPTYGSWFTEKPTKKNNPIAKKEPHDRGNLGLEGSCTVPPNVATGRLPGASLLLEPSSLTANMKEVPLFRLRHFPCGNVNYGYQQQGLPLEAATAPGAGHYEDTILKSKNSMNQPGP
Chain of ALK mutant (G1269A) (Q9UM73 19-1620 G1269A): as the sequence (Q9UM73 19-1620 S1206Y) above, with Y1188S, G1251A counted along it

Regarding `C#Cc1cc2c(=O)c3c4ccc(C#N)cc4[nH]c3n(C(C)C)c2cc1N1CCN(C)CC1` [ALK-71, 2-Ethynyl-5-isopropyl-3-(4-methylpiperazin-1-yl)-11-oxo-6,11-dihydro-5H-indolo[2,3-b]quinoline-8-carbonitrile], the IC50 (as a rule, the concentration that inhibits the measured activity by half) at ALK mutant (G1269A) is 0.47 nM and 0.55 nM; in data set [1] (ALK IC50, wild-type ALK), 0.31 nM; in data set [1] (IC50 ALK Wild-type, Table 2, wild-type ALK) it was 0.31 nM; in data set [2], 31 nM; against ALK mutant (S1206Y) it was 1.3 nM.
With `COc1cc2c(=O)c3c4ccc(C#N)cc4[nH]c3n(C3CCC3)c2c(F)c1N1CCC(N2CCOCC2)CC1` [ALK-74, 5-Cyclobutyl-4-fluoro-2-methoxy-3-(4-morpholinopiperidin-1-yl)-11-oxo-6,11-dihydro-5H-indolo[2,3-b]quinoline-8-carbonitrile], the IC50 in data set [3] came to 84 nM; in data set [1] (ALK IC50, wild-type ALK), 8.4 nM; in data set [2], 98 nM.
On the same counts, the results for `COc1cc2c(=O)c3c4ccc(C#N)cc4[nH]c3n(C3CCC3)c2c(F)c1N1CCN(C)CC1` [ALK-75, 5-Cyclobutyl-4-fluoro-2-methoxy-3-(4-methylpiperazin-1-yl)-11-oxo-6,11-dihydro-5H-indolo[2,3-b]quinoline-8-carbonitrile] are 35.9 nM, 3.6 nM and 22 nM.
On the same counts, the results for `CCOc1cc2c(=O)c3c4ccc(C#N)cc4[nH]c3n(C(C)C)c2c(F)c1N1CCC(N2CCOCC2)CC1` [ALK-76, 2-Ethoxy-4-fluoro-5-isopropyl-3-(4-morpholinopiperidin-1-yl)-11-oxo-6,11-dihydro-5H-indolo[2,3-b]quinoline-8-carbonitrile] are 85 ± 11 nM, 2.5 nM and 35 nM.
Turning to `CCc1cc2c(=O)c3c4ccc(C#N)cc4[nH]c3n(C(C)C)c2cc1N1CCN(C2COC2)CC1` [ALK-77, 2-Ethyl-5-isopropyl-3-(4-(oxetan-3-yl)piperazin-1-yl)-11-oxo-6,11-dihydro-5H-indolo[2,3-b]quinoline-8-carbonitrile], the IC50 in data set [3] was found to be 25.9 nM; in data set [1] (ALK IC50, wild-type ALK) it was 1.1 nM; in data set [2] it was 31 nM.
The matching figures for `CCc1cc2c(=O)c3c4ccc(C#N)cc4[nH]c3n(C(C)C)c2cc1N1CCC(N2CCOCC2)CC1` [ALK-78, 2-Ethyl-5-isopropyl-3-(4-morpholinopiperidin-1-yl)-11-oxo-6,11-dihydro-5H-indolo[2,3-b]quinoline-8-carbonitrile]: 13.1 nM, 0.7 nM and 25 nM.
The matching figures for `CCc1cc2c(=O)c3c4ccc(C#N)cc4[nH]c3n(C(C)C)c2cc1N1CCC(N2CCN(C)CC2)CC1` [ALK-79, 2-Ethyl-5-isopropyl-3-(4-(4-methylpiperazin-1-yl)piperidin-1-yl)-11-oxo-6,11-dihydro-5H-indolo[2,3-b]quinoline-8-carbonitrile]: 2 ± 1 nM, 0.11 nM and 9.6 nM.
The matching figures for `CCc1cc2c(=O)c3c4ccc(C#N)cc4[nH]c3n(C(C)C)c2cc1N1CCN(C(C)C)CC1` [ALK-80, 2-Ethyl-5-isopropyl-3-(4-isopropylpiperazin-1-yl)-11-oxo-6,11-dihydro-5H-indolo[2,3-b]quinoline-8-carbonitrile]: 3 ± 1 nM, 0.22 nM and 7.6 nM.
`CCOc1cc2c(=O)c3c4ccc(C#N)cc4[nH]c3n(C(C)C)c2c(F)c1N1CCN(C)CC1` [ALK-83, 2-Ethoxy-4-fluoro-5-isopropyl-3-(4-methylpiperazin-1-yl)-11-oxo-6,11-dihydro-5H-indolo[2,3-b]quinoline-8-carbonitrile]: the IC50 turned out to be 8.8 nM in data set [3]; 2 nM in data set [1] (ALK IC50, wild-type ALK); 21 nM in data set [2]. Also, the AUC(0-t) in data set [4] (setting [5]) was determined as 1100 ng·h/mL; in data set [4] (oral, read-out: AUC0-t PO), 4430 ng·h/mL. The Cmax (commonly the maximum level reached in the sampled fluid or tissue) in data set [4] (intravenous, read-out: Cmax IV) is 346 ng/mL; in data set [4] (oral, read-out: Cmax PO), 548 ng/mL. Moreover, the Tmax (commonly the time at which the peak concentration occurs) in data set [4] (intravenous, read-out: Tmax IV) was 0.083 h; in data set [4] (oral, read-out: Tmax PO) it was 4 h. Further, the half-life is 5.24 h in data set [4] (setting [6]) and 4.1 h in data set [4] (setting [7]). Further, the bioavailability (usually dose-corrected exposure relative to a reference, in per cent) in data set [4] was found to be 78.8%.
With `CC(C)Oc1cc2c(=O)c3c4ccc(C#N)cc4[nH]c3n(C(C)C)c2c(F)c1N1CCC(N2CCOCC2)CC1` [ALK-85, 4-Fluoro-2-isopropoxy-5-isopropyl-3-(4-morpholinopiperidin-1-yl)-11-oxo-6,11-dihydro-5H-indolo[2,3-b]quinoline-8-carbonitrile], the IC50 in data set [3] was found to be 148 ± 26 nM; in data set [1] (ALK IC50, wild-type ALK), 22.9 nM; in data set [2], 66 nM.
In the case of `CC(C)Oc1cc2c(=O)c3c4ccc(C#N)cc4[nH]c3n(C(C)C)c2c(F)c1N1CCN(C)CC1` [ALK-86, 4-Fluoro-2-isopropoxy-5-isopropyl-3-(4-methylpiperazin-1-yl)-11-oxo-6,11-dihydro-5H-indolo[2,3-b]quinoline-8-carbonitrile], the IC50 in data set [3] stood at 161 nM; in data set [1] (ALK IC50, wild-type ALK), 5.8 nM; in data set [2] it was 31 nM. The AUC(0-t) in data set [4] (setting [5]) amounted to 1080 ng·h/mL; in data set [4] (oral, read-out: AUC0-t PO) it was 2440 ng·h/mL. Further, the Cmax was 261 ng/mL in data set [4] (intravenous, read-out: Cmax IV) and 258 ng/mL in data set [4] (oral, read-out: Cmax PO). Besides, the Tmax turned out to be 0.083 h in data set [4] (intravenous, read-out: Tmax IV) and 4 h in data set [4] (oral, read-out: Tmax PO). Besides, the half-life in data set [4] (setting [6]) is 5.23 h; in data set [4] (setting [7]), 5.11 h. Also, in data set [4], the bioavailability stood at 44.6%.
Consider `CCc1cc2c(=O)c3c4ccc(C#N)cc4[nH]c3n(C(C)C)c2cc1C1CCN(C)CC1` [CJ-2217, 2-Ethyl-5-isopropyl-3-(1-methylpiperidin-4-yl)-11-oxo-6,11-dihydro-5H-indolo[2,3-b]quinoline-8-carbonitrile], for which the IC50 is 17 ± 8 nM in data set [3]; 0.52 nM in data set [1] (ALK IC50, wild-type ALK); 14 nM in data set [2].
As to `CCc1cc2c(=O)c3c4ccc(C#N)cc4[nH]c3n(C(C)C)c2cc1C1CCN(C2COC2)CC1` [CJ-2238, 2-Ethyl-5-isopropyl-3-(1-(oxetan-3-yl)piperidin-4-yl)-11-oxo-6,11-dihydro-5H-indolo[2,3-b]quinoline-8-carbonitrile], the IC50 in data set [3] came to 1040 nM; in data set [1] (ALK IC50, wild-type ALK) it was 2.6 nM; in data set [2], 231 nM.
The matching figures for `CCc1cc2c(=O)c3c4ccc(C#N)cc4[nH]c3n(C(C)C)c2cc1C1CCN(C(C)C)CC1` [CJ-2239, 2-Ethyl-5-isopropyl-3-(1-isopropylpiperidin-4-yl)-11-oxo-6,11-dihydro-5H-indolo[2,3-b]quinoline-8-carbonitrile]: 36 ± 13 nM, 0.77 nM and 16 nM.
On the same counts, the results for `CCc1cc2c(=O)c3c4ccc(C#N)cc4[nH]c3n(C(C)C)c2cc1C1CCN(C2CCOCC2)CC1` [CJ-2240, 2-Ethyl-5-isopropyl-11-oxo-3-(1-(tetrahydro-2H-pyran-4-yl)piperidin-4-yl)-6,11-dihydro-5H-indolo[2,3-b]quinoline-8-carbonitrile] are 33 ± 12 nM, 0.78 nM and 35 nM.
The matching figures for `CCc1cc2c(=O)c3c4ccc(C#N)cc4[nH]c3n(C(C)C)c2cc1C1CCN(CCO)CC1` [CJ-2241, 2-Ethyl-3-(1-(2-hydroxyethyl)piperidin-4-yl)-5-isopropyl-11-oxo-6,11-dihydro-5H-indolo[2,3-b]quinoline-8-carbonitrile]: 154 nM, 0.32 nM and 292 nM.

Values taken from patent publication US9783539B2, “Indoloquinolone compounds as anaplastic lymphoma kinase (ALK) inhibitors” (Jiangsu Ascentage Biomed Development Inc., priority 2014, dated 2017).
